#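 Values below derive from 48-hour exposures of cells grown in 96-well plates, with endpoints linearly interpolated between the two concentrations bracketing the appropriate inhibition level. The concentration for 50% growth inhibition is given as GI50.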 Active and inactive are the calls of the source. Cut-off read from the data, not from the text of the source: active = GI50 up to about 1.1 µM and inactive = higher.
# Assays:
# Test in all cases: growth of human tumour cells (NCI), 48 h
# [1] = system: 786-0
# [2] = system: A498
# [3] = system: A549
# [4] = system: ACHN
# [5] = system: CAKI-1
# [6] = system: CCRF-CEM
# [7] = system: COLO 205
# [8] = system: DLD-1
# [9] = system: DMS-114
# [10] = system: DMS-273
# [11] = system: EKVX
# [12] = system: HCC 2998
# [13] = system: HCT-116
# [14] = system: HCT-15
# [15] = system: HL-60
# [16] = system: HOP-18
# [17] = system: HOP-62
# [18] = system: HOP-92
# [19] = system: HT-29
# [20] = system: IGROV-1
# [21] = system: K562
# [22] = system: KM-20L2
# [23] = system: KM12
# [24] = system: LOX IMVI
# [25] = system: LXFL 529
# [26] = system: M14
# [27] = system: M19-MEL
# [28] = system: MOLT-4
# [29] = system: Malme-3M
# [30] = system: NCI-H226
# [31] = system: NCI-H23
# [32] = system: NCI-H460
# [33] = system: NCI-H522
# [34] = system: OVCAR-3
# [35] = system: OVCAR-4
# [36] = system: OVCAR-5
# [37] = system: OVCAR-8
# [38] = system: RPMI-8226
# [39] = system: RXF 393
# [40] = system: RXF 631
# [41] = system: SF-268
# [42] = system: SF-295
# [43] = system: SF-539
# [44] = system: SK-MEL-28
# [45] = system: SK-MEL-2
# [46] = system: SK-MEL-5
# [47] = system: SK-OV-3
# [48] = system: SNB-19
# [49] = system: SNB-75
# [50] = system: SNB-78
# [51] = system: SW-620
# [52] = system: TK-10
# [53] = system: U-251
# [54] = system: UACC-257
# [55] = system: UACC-62
# [56] = system: UO-31
# [57] = system: XF498
# [58] = system: SN12C
# [59] = system: SR
smiles,measurement,setting,value
COc1ccc2c(c1)OC[C@@H]1c3cc(O)c(OCc4ccccc4)cc3O[C@H]21,GI50,[1],37.3 µM (inactive)
same,GI50,[2],6.62 µM (inactive)
same,GI50,[3],26.2 µM (inactive)
same,GI50,[4],22.9 µM (inactive)
same,GI50,[5],24.1 µM (inactive)
same,GI50,[6],34.3 µM (inactive)
same,GI50,[7],27.9 µM (inactive)
same,GI50,[8],36.1 µM (inactive)
same,GI50,[9],19.5 µM (inactive)
same,GI50,[10],40.6 µM (inactive)
same,GI50,[11],19.4 µM (inactive)
same,GI50,[12],36.2 µM (inactive)
same,GI50,[13],29.9 µM (inactive)
same,GI50,[14],22 µM
same,GI50,[15],16.8 µM (inactive)
same,GI50,[16],> 100 µM (inactive)
same,GI50,[17],48 µM (inactive)
same,GI50,[18],14.8 µM (inactive)
same,GI50,[19],34.2 µM (inactive)
same,GI50,[20],26.5 µM (inactive)
same,GI50,[21],31.8 µM (inactive)
same,GI50,[22],33.9 µM (inactive)
same,GI50,[23],30.2 µM (inactive)
same,GI50,[24],30 µM (inactive)
same,GI50,[25],18.7 µM (inactive)
same,GI50,[26],27.9 µM (inactive)
same,GI50,[27],27 µM (inactive)
same,GI50,[28],29.5 µM (inactive)
same,GI50,[29],28.1 µM (inactive)
same,GI50,[30],27.3 µM (inactive)
same,GI50,[31],16.4 µM (inactive)
same,GI50,[32],17.3 µM (inactive)
same,GI50,[33],13.5 µM (inactive)
same,GI50,[34],38 µM (inactive)
same,GI50,[35],16.6 µM (inactive)
same,GI50,[36],66.5 µM (inactive)
same,GI50,[37],29.5 µM (inactive)
same,GI50,[38],10.2 µM (inactive)
same,GI50,[39],25.9 µM (inactive)
same,GI50,[40],45.2 µM (inactive)
same,GI50,[41],28.3 µM (inactive)
same,GI50,[42],28.8 µM (inactive)
same,GI50,[43],90.4 µM (inactive)
same,GI50,[44],32.9 µM (inactive)
same,GI50,[45],17.3 µM (inactive)
same,GI50,[46],13.1 µM (inactive)
same,GI50,[47],17.3 µM (inactive)
same,GI50,[48],46.8 µM (inactive)
same,GI50,[49],14.2 µM (inactive)
same,GI50,[50],19.7 µM (inactive)
same,GI50,[51],29.6 µM (inactive)
same,GI50,[52],32.7 µM (inactive)
same,GI50,[53],23.7 µM (inactive)
same,GI50,[54],17.9 µM (inactive)
same,GI50,[55],18.1 µM (inactive)
same,GI50,[56],20.1 µM (inactive)
same,GI50,[57],26.2 µM (inactive)
CC(=O)OCC1=CC2CCC3C(C)(CCC[C@]3(C)COC(C)=O)C23CC[C@H]1C3 (stereo not given in full),GI50,[1],57.3 µM (inactive)
same,GI50,[2],> 100 µM (inactive)
same,GI50,[3],64 µM (inactive)
same,GI50,[4],73.1 µM (inactive)
same,GI50,[5],39.6 µM (inactive)
same,GI50,[6],27.9 µM (inactive)
same,GI50,[7],24 µM (inactive)
same,GI50,[8],51.6 µM (inactive)
same,GI50,[9],12.9 µM (inactive)
same,GI50,[10],29.6 µM (inactive)
same,GI50,[11],83 µM (inactive)
same,GI50,[12],22.3 µM (inactive)
same,GI50,[13],38.8 µM (inactive)
same,GI50,[14],> 100 µM
same,GI50,[15],26 µM (inactive)
same,GI50,[16],> 100 µM (inactive)
same,GI50,[17],75.9 µM (inactive)
same,GI50,[18],27.8 µM (inactive)
same,GI50,[19],35.8 µM (inactive)
same,GI50,[20],99.3 µM (inactive)
same,GI50,[21],27.2 µM (inactive)
same,GI50,[22],41 µM (inactive)
same,GI50,[23],33.7 µM (inactive)
same,GI50,[24],25 µM (inactive)
same,GI50,[25],29.2 µM (inactive)
same,GI50,[26],36 µM (inactive)
same,GI50,[27],34.5 µM (inactive)
same,GI50,[28],20.1 µM (inactive)
same,GI50,[29],52.8 µM (inactive)
same,GI50,[30],68.1 µM (inactive)
same,GI50,[31],33.9 µM (inactive)
same,GI50,[32],> 100 µM (inactive)
same,GI50,[33],18.8 µM (inactive)
same,GI50,[34],31.9 µM (inactive)
same,GI50,[35],30.1 µM (inactive)
same,GI50,[36],> 100 µM (inactive)
same,GI50,[37],53.7 µM (inactive)
same,GI50,[38],21.6 µM (inactive)
same,GI50,[39],46.5 µM (inactive)
same,GI50,[40],> 100 µM (inactive)
same,GI50,[41],> 100 µM (inactive)
same,GI50,[42],37.3 µM (inactive)
same,GI50,[43],40.3 µM (inactive)
same,GI50,[44],> 100 µM (inactive)
same,GI50,[45],33.8 µM (inactive)
same,GI50,[46],25.5 µM (inactive)
same,GI50,[47],64.7 µM (inactive)
same,GI50,[58],45.2 µM (inactive)
same,GI50,[48],68.4 µM (inactive)
same,GI50,[49],34.9 µM (inactive)
same,GI50,[59],27.5 µM (inactive)
same,GI50,[51],56.6 µM (inactive)
same,GI50,[52],> 100 µM (inactive)
same,GI50,[53],27.9 µM (inactive)
same,GI50,[54],37.7 µM (inactive)
same,GI50,[55],36.1 µM (inactive)
same,GI50,[56],53.7 µM (inactive)
same,GI50,[57],33.8 µM (inactive)
